Measurements from patent US9694002B2, “Substituted benzamides and methods of use thereof” (GENENTECH, INC., priority 2013, dated 2017).
Where a name gives a salt, the structure may show the parent alone.

The molecules below were run against NaV1.7 (Homo sapiens (Human), UniProt Q15858) (assay: Electrophysiological assay (EP), patch voltage clamp, NaV1.7). Settings: HEK-293 cells stably expressing human NaV1.7 with β1 subunit, whole-cell patch clamp, held at −60 mV (inactivated state).
Type: cell-based
Procedure: NaV1.7 and NaV1.5 cDNAs (NM_002977 and AG 137587; SCN5A, respectively) were stably expressed in HEK-293 cells.
Control sodium currents were measured in 0.5% DMSO.
Series resistance compensation was applied (60-80%).

Chain of NaV1.7 (Q15858 other isoform, or with tags, fused parts or gaps): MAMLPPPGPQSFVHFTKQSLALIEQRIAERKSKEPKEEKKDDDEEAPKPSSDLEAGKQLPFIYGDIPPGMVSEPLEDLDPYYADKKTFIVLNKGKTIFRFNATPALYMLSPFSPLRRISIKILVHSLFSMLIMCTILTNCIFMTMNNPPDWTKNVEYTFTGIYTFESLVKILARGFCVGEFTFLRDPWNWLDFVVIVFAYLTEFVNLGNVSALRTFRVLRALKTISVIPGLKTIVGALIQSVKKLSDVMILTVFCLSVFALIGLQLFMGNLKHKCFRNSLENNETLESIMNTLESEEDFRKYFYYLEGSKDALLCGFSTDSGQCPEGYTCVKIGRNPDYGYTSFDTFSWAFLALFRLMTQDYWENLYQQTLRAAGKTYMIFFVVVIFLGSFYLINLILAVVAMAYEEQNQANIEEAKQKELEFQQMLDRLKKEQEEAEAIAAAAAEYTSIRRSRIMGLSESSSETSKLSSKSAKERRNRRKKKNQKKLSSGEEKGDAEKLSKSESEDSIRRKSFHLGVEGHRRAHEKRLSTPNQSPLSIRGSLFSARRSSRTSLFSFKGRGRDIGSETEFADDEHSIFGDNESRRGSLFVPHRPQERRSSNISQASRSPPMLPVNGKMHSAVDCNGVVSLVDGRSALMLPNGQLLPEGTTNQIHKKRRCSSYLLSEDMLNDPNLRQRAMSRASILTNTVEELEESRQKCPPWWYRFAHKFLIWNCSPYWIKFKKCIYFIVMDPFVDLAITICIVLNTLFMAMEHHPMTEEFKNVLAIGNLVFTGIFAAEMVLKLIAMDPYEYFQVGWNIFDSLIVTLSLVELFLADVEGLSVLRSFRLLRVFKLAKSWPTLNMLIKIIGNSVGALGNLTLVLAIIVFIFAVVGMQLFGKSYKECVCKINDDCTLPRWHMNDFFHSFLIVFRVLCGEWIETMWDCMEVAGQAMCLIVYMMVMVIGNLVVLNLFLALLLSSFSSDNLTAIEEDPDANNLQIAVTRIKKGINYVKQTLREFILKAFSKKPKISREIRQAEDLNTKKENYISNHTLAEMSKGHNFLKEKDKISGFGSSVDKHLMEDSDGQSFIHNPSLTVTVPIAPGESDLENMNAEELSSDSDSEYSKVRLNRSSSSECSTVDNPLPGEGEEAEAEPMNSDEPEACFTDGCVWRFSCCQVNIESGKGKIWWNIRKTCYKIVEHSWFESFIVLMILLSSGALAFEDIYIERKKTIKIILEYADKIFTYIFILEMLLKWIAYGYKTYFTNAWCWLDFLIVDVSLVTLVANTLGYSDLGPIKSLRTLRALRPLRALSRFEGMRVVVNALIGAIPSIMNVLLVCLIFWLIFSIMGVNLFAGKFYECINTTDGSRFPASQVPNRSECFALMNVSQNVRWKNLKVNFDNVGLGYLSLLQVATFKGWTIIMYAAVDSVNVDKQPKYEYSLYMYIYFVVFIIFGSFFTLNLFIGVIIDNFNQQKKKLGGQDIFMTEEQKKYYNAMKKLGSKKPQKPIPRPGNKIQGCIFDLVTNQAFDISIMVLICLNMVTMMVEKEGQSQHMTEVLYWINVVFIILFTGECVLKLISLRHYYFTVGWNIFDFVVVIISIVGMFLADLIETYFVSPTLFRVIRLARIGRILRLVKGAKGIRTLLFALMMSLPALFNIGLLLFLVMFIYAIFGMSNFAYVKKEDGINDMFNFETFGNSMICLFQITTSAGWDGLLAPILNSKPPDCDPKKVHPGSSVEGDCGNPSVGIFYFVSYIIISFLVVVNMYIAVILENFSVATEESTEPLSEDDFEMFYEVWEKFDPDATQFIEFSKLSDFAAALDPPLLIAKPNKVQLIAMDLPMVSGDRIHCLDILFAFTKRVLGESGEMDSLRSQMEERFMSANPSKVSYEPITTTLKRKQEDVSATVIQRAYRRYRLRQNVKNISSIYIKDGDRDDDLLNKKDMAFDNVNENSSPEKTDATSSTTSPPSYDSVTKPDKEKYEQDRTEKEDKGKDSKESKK
Chain of NaV1.7 (Q07699 19-218 partner): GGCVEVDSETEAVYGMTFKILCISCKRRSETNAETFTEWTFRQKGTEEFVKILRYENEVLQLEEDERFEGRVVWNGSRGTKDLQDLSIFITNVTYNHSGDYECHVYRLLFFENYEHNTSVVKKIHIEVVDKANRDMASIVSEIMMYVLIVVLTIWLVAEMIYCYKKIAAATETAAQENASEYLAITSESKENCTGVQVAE

For `C[C@@H](c1cc(Cl)cc(Cl)c1)N1CCC(COc2cc(F)c(C(=O)NS(=O)(=O)C3CC3)cc2C2CC2)CC1` (single isomer, unassigned) [Example 270], the IC50 was 5.8 nM.

What follows are molecules tested against hNav1.7 (Homo sapiens (Human), UniProt Q15858) (assay: Ligand binding assay: tritiated sulfonamide binding to membranes from cells expressing hNav1.7 and the β1 subunit). Settings: not given.
Chain of hNav1.7 (Q15858 whole entry): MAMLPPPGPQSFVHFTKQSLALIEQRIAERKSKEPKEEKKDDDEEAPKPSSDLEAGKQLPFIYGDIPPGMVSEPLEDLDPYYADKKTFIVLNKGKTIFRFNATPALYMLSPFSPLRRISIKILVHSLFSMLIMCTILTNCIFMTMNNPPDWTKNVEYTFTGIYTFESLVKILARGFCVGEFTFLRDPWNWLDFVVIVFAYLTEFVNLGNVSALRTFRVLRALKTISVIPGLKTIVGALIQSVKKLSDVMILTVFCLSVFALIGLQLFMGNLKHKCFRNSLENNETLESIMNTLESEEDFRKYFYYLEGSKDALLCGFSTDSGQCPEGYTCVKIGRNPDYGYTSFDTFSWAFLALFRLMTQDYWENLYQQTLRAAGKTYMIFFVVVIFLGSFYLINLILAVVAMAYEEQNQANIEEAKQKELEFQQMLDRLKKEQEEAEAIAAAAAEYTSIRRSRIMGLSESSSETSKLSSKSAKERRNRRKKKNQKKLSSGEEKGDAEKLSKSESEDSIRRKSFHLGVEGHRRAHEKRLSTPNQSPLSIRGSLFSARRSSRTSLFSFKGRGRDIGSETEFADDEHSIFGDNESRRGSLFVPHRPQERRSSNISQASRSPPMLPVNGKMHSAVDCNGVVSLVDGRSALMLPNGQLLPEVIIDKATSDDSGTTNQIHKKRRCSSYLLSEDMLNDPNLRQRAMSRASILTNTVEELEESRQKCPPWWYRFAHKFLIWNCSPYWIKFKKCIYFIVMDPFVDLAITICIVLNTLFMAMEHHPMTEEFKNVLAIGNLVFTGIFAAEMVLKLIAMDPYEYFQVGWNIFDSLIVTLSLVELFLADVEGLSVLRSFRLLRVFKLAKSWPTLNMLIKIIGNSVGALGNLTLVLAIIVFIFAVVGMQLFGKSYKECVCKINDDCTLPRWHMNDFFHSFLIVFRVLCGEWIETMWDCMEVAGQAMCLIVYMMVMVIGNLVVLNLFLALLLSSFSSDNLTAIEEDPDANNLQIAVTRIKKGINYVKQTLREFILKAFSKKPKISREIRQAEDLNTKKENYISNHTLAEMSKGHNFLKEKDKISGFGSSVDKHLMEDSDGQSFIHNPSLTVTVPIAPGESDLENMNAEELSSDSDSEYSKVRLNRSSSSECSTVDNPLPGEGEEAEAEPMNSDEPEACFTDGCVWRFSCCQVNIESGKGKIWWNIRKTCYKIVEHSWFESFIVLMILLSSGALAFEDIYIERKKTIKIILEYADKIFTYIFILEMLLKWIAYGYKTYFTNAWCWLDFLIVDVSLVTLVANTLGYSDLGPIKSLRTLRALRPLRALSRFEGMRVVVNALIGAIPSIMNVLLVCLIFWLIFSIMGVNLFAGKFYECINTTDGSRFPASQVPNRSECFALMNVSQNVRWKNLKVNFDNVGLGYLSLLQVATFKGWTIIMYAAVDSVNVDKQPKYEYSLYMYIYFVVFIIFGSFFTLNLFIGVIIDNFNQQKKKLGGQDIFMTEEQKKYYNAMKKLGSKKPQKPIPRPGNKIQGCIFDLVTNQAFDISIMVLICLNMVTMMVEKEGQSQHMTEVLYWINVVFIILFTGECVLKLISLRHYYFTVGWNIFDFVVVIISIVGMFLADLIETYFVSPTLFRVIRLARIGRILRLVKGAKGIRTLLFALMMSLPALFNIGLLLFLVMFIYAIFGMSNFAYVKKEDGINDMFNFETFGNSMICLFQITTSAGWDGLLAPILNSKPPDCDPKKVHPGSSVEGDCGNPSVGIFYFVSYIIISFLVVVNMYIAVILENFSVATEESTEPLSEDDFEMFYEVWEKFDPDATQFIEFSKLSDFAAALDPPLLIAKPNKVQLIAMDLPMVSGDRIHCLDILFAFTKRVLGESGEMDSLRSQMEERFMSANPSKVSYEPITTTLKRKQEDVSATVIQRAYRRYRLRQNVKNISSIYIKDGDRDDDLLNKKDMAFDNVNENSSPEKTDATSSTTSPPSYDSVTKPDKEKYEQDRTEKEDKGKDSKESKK
Chain of hNav1.7 (Q07699 19-218 partner): as the sequence (Q07699 19-218 partner) above

With `CS(=O)(=O)NC(=O)c1cc(C2CC2)c(CN2CCN(S(=O)(=O)c3cc(Cl)cc(Cl)c3)CC2)cc1F` [Example 526, 5-cyclopropyl-4-((4-((3,5-dichlorophenyl)sulfonyl)piperazin-1-yl)methyl)-2-fluoro-N-(methylsulfonyl)benzamide, trifluoroacetic acid salt] the IC50 was 20.2 nM.

Same assay, conditions: read-out: Ligand Binding Assay; competition with 100 pM [3H]compound, membranes with hNav1.7 and β1 subunit, room temperature, 18 h

Compared with `C[C@@H](c1cc(Cl)cc(Cl)c1)N1CCC(COc2cc(F)c(C(=O)NS(=O)(=O)C3CC3)cc2C2CC2)CC1` (single isomer, unassigned) [Example 270], `C[C@H](c1cc(Cl)cc(Cl)c1)N1CCC[C@H](COc2cc(F)c(C(=O)NS(C)(=O)=O)cc2C2CC2)C1` (single isomer, unassigned) [Example 337, trifluoroacetic acid salt] is 2.2-fold higher in IC50: 5 nM for the first, 11.1 nM for the second.

`C[C@@H](c1cc(Cl)cc(Cl)c1)N1CCC[C@H](COc2cc(F)c(C(=O)NS(C)(=O)=O)cc2C2CC2)C1` (single isomer, unassigned) [Example 338, trifluoroacetic acid salt] and `C[C@@H]1CC[C@@H](COc2cc(F)c(C(=O)NS(C)(=O)=O)cc2C2CC2)CN1[C@@H](C)c1cc(Cl)cc(Cl)c1` (single isomer, unassigned) [Example 342, trifluoroacetic acid salt] are within 1.5-fold of each other in IC50: 7.4 nM for the first, 5.7 nM for the second.

Going from `O=C(NS(=O)(=O)C1CC1)c1cc(Cl)c(O[C@@H]2CCCN(Cc3ccc(F)cc3Cl)C2)cc1F` [Example 39, (R)-5-chloro-4-((1-(2-chloro-4-fluorobenzyl)piperidin-3-yl)oxy)-N-(cyclopropylsulfonyl)-2-fluorobenzamide, trifluoroacetic acid salt] to `C[C@@H](c1cc(Cl)cc(Cl)c1)N1CCC[C@@H](Oc2cc(F)c(C(=O)NS(C)(=O)=O)cc2C2CC2)C1` [Example 50], the IC50 falls from 6.8 nM to 1.9 nM (3.6-fold).

Going from `CS(=O)(=O)NC(=O)c1cc(C2CC2)c(OCC2CCN(Cc3cccc(Cl)c3)CC2)cc1F` [Example 92, 4-((1-(3-Chlorobenzyl)piperidin-4-yl)methoxy)-5-cyclopropyl-2-fluoro-N-(methylsulfonyl)benzamide] to `CS(=O)(=O)NC(=O)c1cc(C2CC2)c(OCC2CCN(S(=O)(=O)C3COC3)CC2)cc1F` [Example 392, 5-cyclopropyl-2-fluoro-N-(methylsulfonyl)-4-((1-(oxetan-3-ylsulfonyl)piperidin-4-yl)methoxy)benzamide], the IC50 rises from 30.5 nM to 2060 nM (68-fold). The first is the more potent here.

First: O=C(NS(=O)(=O)C1CC1)c1cc(C2CC2)c(CN2CCC(Oc3ccc(C(F)(F)F)cn3)CC2)cc1F [Example 477, 5-cyclopropyl-N-(cyclopropylsulfonyl)-2-fluoro-4-((4-((5-(trifluoromethyl)pyridin-2-yl)oxy)piperidin-1-yl)methyl)benzamide, trifluoroacetic acid salt]
Second: (R)-5-cyclopropyl-4-((1-(3,5-dichlorobenzyl)-2-oxopiperidin-4-yl)methoxy)-2-fluoro-N-(methylsulfonyl)benzamide [Example 234]
The IC50 of the first is 12-fold lower: 14.2 nM for the first, 170 nM for the second. The first is the more potent here.

“(S)-5-cyclopropyl-4-((1-(1-(3,5-dichlorophenyl)ethyl)-4-fluoropiperidin-4-yl)methoxy)-2-fluoro-N-(methylsulfonyl)benzamide, trifluoroacetic acid salt [Example 349]” and “(S)-5-cyclopropyl-N-(cyclopropylsulfonyl)-4-((1-(1-(3,5-dichlorophenyl)ethyl)-4-fluoropiperidin-4-yl)methoxy)-2-fluorobenzamide [Example 350]” are within 1.5-fold of each other in IC50: 4 nM for the first, 4.5 nM for the second.
